Holding throughout (format): cell-based, human
In one assay the test system is Chang cells. Briefly: Cell PD determination (TMRE fluorescence). To be noted: non-transfected Chang cells, 50 μM muscimol, 48 hours. The procedure:
(§1) A Leica DM IRB fluorescence microscope equipped with a PDMI-2 Open perfusion Micro-incubator (Harvard Apparatus, Saint-Laurent, Quebec) was used to measure PDs as described by Loew (Loew, 1998, Cell Biology: A Laboratory Handbook). The incubating temperature was 37° C. Twenty four hour cultured healthy, human hepatocytes and malignant hepatocytes were washed with NB buffer (130 mM NaCl, 5.5 mM KCl, 1.8 mM CaCl2, 1.0 mM MgCl2, 25 mM glucose and 20 mM HEPES buffer adjusted to pH 7.4) three times and then incubated for 10 min with NTB buffer (100 nM tetramethylrhodamine ethyl ester (TMRE) in NB buffer). After obtaining photographs of the fluorescent cells, they were washed with KB buffer (130 mM KCl, 5.5 mM NaCl, 1.8 mM CaCl2, 1.0 mM MgCl2, 25 mM glucose and 20 mM HEPES buffer adjusted to pH 7.4) three times and incubated for 10 min with DTB buffer (100 nM TMRE and 1 μM valinomysin in KB buffer). Photographs were then obtained of the depolarized cells. Fluorescence within the cell was designated intracellular fluorescence (Fin) and fluorescence outside the cell as extracellular fluorescence (Fout). To calculate PDs the Nernst equation was used.
(§2) PD=−(RT/ZF)λn[Fin dFout)/(FoutdFin),
where PD is membrane potential, Z is the charge of the permeable ion, F is Faraday's constant, R is the ideal gas constant and T is the absolute temperature. […]

The subject of assay [1] is Chang cells transfected with GABAA-β3 receptor cDNA. Put plainly: Cell PD determination (TMRE fluorescence) after muscimol exposure. The procedure: as §1, §2
(§3) where PD is membrane potential, Z is the charge of the permeable ion, F is Faraday's constant, R is the ideal gas constant and T is the absolute temperature.
(§4) To determine whether further hyperpolarization could be achieved in Chang cells transfected with GABAA-β3 receptor cDNA, these cells together with non-transfected Chang cells and Chang cells transfected with vector alone were exposed to 50 μM muscimol, a specific GABAA receptor agonist for 48 hours.

Assay [2] concerns Chang cells transfected with vector alone. The description is as above. To be noted: 50 μM muscimol, 48 hours. The procedure: as §1, §2, §3, §4
The test system of assay [3] is Chang cells transfected with GABAA-β3 receptor cDNA. Put plainly: Proliferative activity after varying concentrations of muscimol. To be noted: muscimol 0-100 μM, FIG. 12. The procedure: (§5) [^3H]-thymidine incorporation was determined as described by Luk (Luk, 1986, Gastroenterology 90: 1261-1267). 5×10^4 cells were seeded into 6-well plates. After two days of culture to allow attachment to plate bottoms, cells were incubated with 1 μCi [^3H]-thymidine for 2 hours at 37° C. [^3H]-thymidine incorporated into cellular DNA was precipitated by the addition of 10% trichloroacetic acid (TCA) for 15 min at room temperature. Cells were rinsed and resolublilized in a 0.3 M NaOH and 1% SDS solution then assayed for radioactivity in a […].
(§6) Bromodeoxyuridine (BrdUrd) incorporation was determined by seeding 5×10^3 cells into 96 well plates. At subconfluence, cells were incubated with serum-free DMEM. Twenty-four hours later, the media was switched to DMEM containing BrdUrd for 2 hours. Incoroporation of BrdUrd was determined using a 5-Bromo-2′-deoxyuridine Labeling and Detection Kit III (Roche Diagnostics, Mississauga, Ontario, Canada) according to the manufacturer's instructions. Absorbance at 450-490 nm was measured using a microplate reader (Molecular Devices, Menlo Park, Calif., USA).
(§7) WST-1 determinations were performed using a commercially available kit (Boehringer Mannheim Canada, Laval, Quebec, Canada). Briefly, 1×10^4 cells were seeded into 96 well plates. After two days of culture one tenth the volume of 4-[3-(4-lodophenyl)-2-(4-nitrophenyl)-2H-5-tetrazolio]-1,3-benzene disulfonate (WST-1, Boehringer Mannheim, Laval, PQ) was added to each well, and the cells incubated with WST-1 for 4 h in 37° C. Asborbance at A405-A650 was determined by a microplate reader (Molecular Devices, Menlo Park, Calif., USA).
(§8) To determine whether the addition of muscimol and/or other GABAA receptor agonists might have therapeutic value in inhibiting the growth of malignant hepatocytes with restored GABAAβ3 receptor mRNA expression, proliferative activity was documented in Chang cells transfected with GABAA-β3 receptor cDNA or vector alone following exposure to varying concentrations of muscimol (0-100 μM).

The test system of assay [4] is Chang cells transfected with vector alone. Described as above. To be noted: muscimol 0-100 μM, FIG. 12. The procedure:
as §5, §6, §7, §8

Results on one molecule are retold here after US20020156016A1, “Control of cell growth by altering cell membrane potentials” (priority 2001, published 2002).

For the molecule `NCc1cc(=O)[nH]o1` [muscimol], the “effect on PDs” value (in the assay with Chang cells; in assay [2]) was “little or no effect” throughout. Besides, the “increase of PDs after muscimol” value in assay [1] (50 μM muscimol, 48 hours) is on record as “approximately 40%”. Moreover, in assay [1] (50 μM muscimol, 48 hours, pre-muscimol −12.0±0.9), the PD post-muscimol is on record as −16.4±0.8. Besides, in assay [1] (Muscimol 50 μM, FIG. 11), the “effect on membrane potentials (PDs), in words” value was “became more polarized”. For the same molecule, the figures for the proliferative activity result in assay [3], in assay [3] (listed as Muscimol) and in assay [4] were “dose dependent decrease”, “significantly decreased in a dose dependent fashion” and “remained essentially unaltered”, respectively.
